We go through ten compounds from ChEMBL document CHEMBL6177933, “Discovery of Sophoridine α-Aryl Propionamide Derivative ZM600 as a Novel Antihepatic Fibrosis Agent” (J Med Chem, 2024).

One may read the IC50 as the concentration needed to halve the response being measured.

For data set [1], the system named is RAW264.7. The data set is described as follows: Inhibition of LPS-induced NFkappaB transcriptional activity in mouse RAW264.7 cells at 20 uM preincubated for 2 hrs followed by LPS stimulation and measured after 6 hrs by luciferase reporter gene assay relative to control. It is filed as cell-based. As to conditions: time 8.0 hrs. (In general: A reporter such as luciferase makes a cellular process visible.)

The test system of data set [2] is RAW264.7. Kind of data set: Inhibition of LPS-induced NFkappaB transcriptional activity in mouse RAW264.7 cells at 10 uM preincubated for 2 hrs followed by LPS stimulation and measured after 6 hrs by luciferase reporter gene assay relative to control. To be noted: time 8.0 hrs. The data set is classed as cell-based.
Data set [3] concerns RAW264.7. Kind of data set: Inhibition of LPS-induced NFkappaB transcriptional activity in mouse RAW264.7 cells at 5 uM preincubated for 2 hrs followed by LPS stimulation and measured after 6 hrs by luciferase reporter gene assay relative to control. It is filed as cell-based. To be noted: time 8.0 hrs.
The nature of data set [4]: Cytotoxicity against human LX-2 cells assessed as reduction in cell viability measured after 48 hrs by CCK-8 assay. The data set is classed as toxicity, cell-based. Background: Formazan colour is commonly taken as a measure of viable cells.
The test system of data set [5] is RAW264.7. Kind of data set: Antiinflammatory activity in mouse RAW264.7 cells assessed as inhibition of TGFbeta1-induced alpha-SMA expression at 5 to 20 uM preincubated for 2 hrs […] and measured after 48 hrs by Western blot analysis. The data set is classed as functional, cell-based. To be noted: dose 5-20 µM, time 50.0 hrs. For orientation: Immunoblotting shows a protein as a band on a membrane.

Data set [6] relates to RAW264.7. Kind of data set: Antiinflammatory activity in mouse RAW264.7 cells assessed as inhibition of TGFbeta1-induced collagen 1 expression at 5 to 20 uM preincubated for 2 hrs […] and measured after 48 hrs by Western blot analysis. The data set is classed as functional, cell-based. To be noted: dose 5-20 µM, time 50.0 hrs.

Active and inactive are the calls of the source. The rule behind the calls is not given here.

`COC(=O)CCC[C@@H]1[C@H]2CCCN3CCC[C@H](CN1C(=O)C(C)c1ccc(-c4ccccc4)cc1)[C@@H]23` (some centres not stated): the fold change (FC) in data set [1] came out at 1.04; in data set [2] it was 1.08; in data set [3] it was 1.01. Moreover, the IC50 at 48 h in data set [4] amounted to 21.9 µM.
The like results for `COC(=O)CCC[C@@H]1[C@H]2CCCN3CCC[C@H](CN1C(=O)[C@H](C)c1ccc4cc(OC)ccc4c1)[C@@H]23` were, in that order, 0.94, 0.99, 1.02 and 63.5 µM.
With `COC(=O)CCC[C@@H]1[C@H]2CCCN3CCC[C@H](CN1C(=O)C(C)c1ccc(CC(C)C)cc1)[C@@H]23` (some centres not stated), the fold change (FC) in data set [1] was 1; in data set [2], 1.04; in data set [3] it was 1.03. Further, the IC50 at 48 h in data set [4] came to 53 µM.
As for `COC(=O)CCC[C@@H]1[C@H]2CCCN3CCC[C@H](CN1C(=O)CC1=C(C)/C(=C/c4ccc([S+](C)[O-])cc4)c4ccc(F)cc41)[C@@H]23` (some centres not stated), the values for the fold change (FC) in data set [1], in data set [2] and in data set [3] were 0.99, 1 and 0.99, respectively. Also, the IC50 at 48 h in data set [4] is 61.8 µM.
For `O=C1CCC[C@@H]2[C@H]3CCCN4CCC[C@H](CN12)[C@@H]34` [SOPHORIDINE], the fold change (FC) amounted to 1.05 in data set [1], 0.94 in data set [2] and 1.03 in data set [3]. Besides, the inhibition result in data set [5] and in data set [6] was “inactive” in each case. Besides, the IC50 at 48 h in data set [4] is more than 100 µM.
As to `COC(=O)CCC[C@@H]1[C@H]2CCCN3CCC[C@H](CN1C(=O)Cc1ccc(-c4ccccc4)c(F)c1)[C@@H]23`, the fold change (FC) in data set [1] came out at 1.04; in data set [2] it was 1.13; in data set [3] it was 0.97. Moreover, in data set [4], the IC50 at 48 h was 14.5 µM.
Consider `COC(=O)CCC[C@@H]1[C@H]2CCCN3CCC[C@H](CN1C(=O)Cc1ccc(-c4ccccc4)cc1)[C@@H]23`, for which the fold change (FC) in data set [1] worked out at 0.85; in data set [2], 0.94; in data set [3] it was 0.99. Also, in data set [4], the IC50 at 48 h is 31.7 µM.
`COC(=O)CCC[C@@H]1[C@H]2CCCN3CCC[C@H](CN1C(=O)COC(=O)Cc1ccccc1Nc1c(Cl)cccc1Cl)[C@@H]23`: the results for the fold change (FC) in data set [1], in data set [2] and in data set [3] were 0.81, 0.93 and 0.93, respectively. Also, the 50% inhibitory concentration (IC50) at 48 h in data set [4] worked out at 14.7 µM.
For `COC(=O)CCC[C@@H]1[C@H]2CCCN3CCC[C@H](CN1C(=O)Cc1ccc(-n4c(C)ccc4C)cc1)[C@@H]23`, the fold change (FC) in data set [1] was determined as 1.08; in data set [2] it was 0.93; in data set [3] it was 1.05. In data set [4], the half-inhibitory concentration (IC50) at 48 h stood at 96 µM.
The like results for `COC(=O)CCC[C@@H]1[C@H]2CCCN3CCC[C@H](CN1C(=O)Cc1ccc(-c4cccc(F)c4)cc1)[C@@H]23` were, in that order, 1.04, 1.16, 1.21 and 53.3 µM.
